This is an account of results in patent publication US11344559B2, “PI3KGAMMA inhibitors” (The Regents of the University of California, priority 2019, dated 2022).

Holding throughout (assay type): cell-based
In assay [1] the test system is IL12b protein levels. Briefly: Secondary screening: IL12b protein ELISA in M1 polarized bone marrow derived macrophages. As to conditions: Z score of IL12b protein (ELISA); 1 μM compound, 24 h, IFNg+LPS (M1) polarized bone marrow derived macrophages. The method, then:
(§1) Primary screening was performed on 507 compounds identified by the above-described computational screening. Bone marrow derived macrophages were plated into 96 well plates at d7 post-harvest and incubated with 1 μM compound and polarization reagents for 24 h. Primary screening was performed on cells polarized with interferon gamma (IFNg)+Lipopolysaccharide (LPS) (M1 polarization). Methods of inducing macrophage polarization are known in the art, e.g., as described in Mosser et al., Curr. Protoc. Immunol. 2008 November; Chapter 14:Unit 14.2. doi: 10.1002/0471142735.im1402s83. After 24 h, cell supernatants were removed and screened for IL12b and CCL2 protein levels using an enzyme linked immunosorbent assay (ELISA). Additionally, viability of polarized macrophages incubated with compounds was measured using an MTT assay, a colorimetric assay that measures cell metabolic activity by quantifying NAD(P)H-dependent cellular oxidoreductase reduction of the tetrazolium dye MTT 3-(4,5-dimethylthiazol-2-yl)-2,5-diphenyltetrazolium bromide to its insoluble purple colored formazan. Compounds that increased IL12b protein levels or decreased CCL2 protein levels and reduced viability less than 10% were selected for secondary screening. Secondary screening was performed as described for primary screening with a subset of 141 of the original compounds.
On the technique in general: ELISA stands for enzyme-linked immunosorbent assay.

In a further assay the test system is Arginase-1 expression. Description: RNA screening: Arginase-1 expression in M2 (IL-4) polarized macrophages, quantitative RT-PCR. As to conditions: Macrophage; mRNA vs control; 1 μM compound 1 h before IL-4 (M2) polarization, mRNA harvested 6 h post-stimulation; read-out: RNA Screening IL-4 Arg 1. The procedure: (§2) Compounds with the highest activity levels in the primary and secondary screening assays were tested for their effects on transcription of inflammatory cytokines after M1 (IFNg+LPS) and M2 (IL-4) macrophage polarization. Bone marrow derived macrophages were plated into 12 well plates at d7 post-harvest and incubated for 1 h with 1 μM compound prior to polarization. Cell were then polarized by the addition of either IFNgamma+LPS (M1) or IL-4 (M2) and mRNA was harvested 6 h post-stimulation. Quantitative RT-PCR was used to determine the levels of IL-1beta expression in M1 polarized macrophages and of Arginase-1 and TGF-beta expression in M2 polarized macrophages. Compounds were selected from RNA screening that increased IL-1beta expression or decreased Arginase-1 or TGF-beta expression.

The test system of assay [2] is IL12b protein levels. Briefly: Primary screening: IL12b protein ELISA in M1 polarized bone marrow derived macrophages. As to conditions: Z score of IL12b protein (ELISA); 1 μM compound, 24 h, IFNg+LPS (M1) polarized bone marrow derived macrophages. The procedure:
as §1

Assay [3] relates to IL12b protein levels. Briefly: IL12b protein expression (ELISA) after M1 polarization with bulk synthesized compounds. The conditions noted are these: 10 micromolar compound 1 h before IFNgamma+LPS (M1) polarization, supernatants 24 h post-stimulation, read-out: IL12B protein expression (Percent of Control). The procedure: Compounds with the highest activity levels in the primary, secondary and tertiary screening assays were resynthesized in bulk and then tested for their effects on protein expression of inflammatory cytokines after M1 (IFNg+LPS) macrophage polarization. Bone marrow derived macrophages were plated into 12 well plates at d7 post-harvest and incubated for 1 h with 10 micromolar compound prior to polarization in the presence of bulk synthesized compounds 1-14. Cells were then polarized by the addition of either IFNgamma+LPS (M1) and cell supernatants were harvested 24 h post-stimulation. Methods of inducing macrophage polarization are known in the art, e.g., as described in Mosser et al., Curr. Protoc. Immunol. 2008 November; Chapter 14:Unit 14.2. doi: 10.1002/0471142735.im1402s83. After 24 h, cell supernatants were removed and screened for IL12b protein levels using an enzyme linked immunosorbent assay (ELISA). Increases in IL12b protein levels induced by compounds were recorded as percent increase in IL12b protein expression compared to IL12b expression in the absence of compounds.

Assay [4] concerns CCL2 protein levels. Description: Primary screening: CCL2 protein ELISA in M1 polarized bone marrow derived macrophages. As to conditions: Z score of CCL2 protein (ELISA); 1 μM compound, 24 h, IFNg+LPS (M1) polarized bone marrow derived macrophages. The procedure:
as §1

In assay [5] the test system is CCL2 protein levels. Briefly: Secondary screening: CCL2 protein ELISA in M1 polarized bone marrow derived macrophages. The conditions noted are these: Z score of CCL2 protein (ELISA); 1 μM compound, 24 h, IFNg+LPS (M1) polarized bone marrow derived macrophages. The method, then:
as §1

Another assay concerns TGF-beta expression. Briefly: RNA screening: TGF-beta expression in M2 (IL-4) polarized macrophages, quantitative RT-PCR. On the set-up: key: −: significant decrease in mRNA vs control (mRNA levels above 50% of control); −−: significant decrease in mRNA vs control (mRNA levels below 50% of control); +: significant increase in mRNA vs control; =: no significant change vs control. The conditions noted are these: mRNA vs control; 1 μM compound 1 h before IL-4 (M2) polarization, mRNA harvested 6 h post-stimulation. The procedure: as §2

In a further assay the test system is IL-1beta expression. Briefly: RNA screening: IL-1beta expression in M1 (IFNg+LPS) polarized macrophages, quantitative RT-PCR. On the set-up: key: −: significant decrease in mRNA vs control (mRNA levels above 50% of control); −−: significant decrease in mRNA vs control (mRNA levels below 50% of control); +: significant increase in mRNA vs control; =: no significant change vs control. As to conditions: mRNA vs control; 1 μM compound 1 h before IFNgamma+LPS (M1) polarization, mRNA harvested 6 h post-stimulation. The procedure: as §2

For the molecule `O=C(O)c1nc[nH]c1C(=O)N1CCN(c2ccccn2)CC1` [Compound 9, 5-[(4-pyridin-2-ylpiperazin-1-yl)carbonyl]-1H-imidazole-4-carboxylic acid], the “Secondary Screen ZIL12b” value in the assay with IL12b protein levels [1] is 0.92. Moreover, in the assay on Arginase-1 expression, the mrna remaining at 1 µM is above 50%. Also, in the assay with IL12b protein levels [2], the “Primary Screen ZIL12b” value is listed as 0.54. Also, the activity at 10 µM with IL12b protein levels [3] came to 131%. Besides, the “Primary Screen ZCCL2” value in the assay with CCL2 protein levels [4] is −5.07. Also, the “Secondary Screen ZCCL2” value with CCL2 protein levels [5] is listed as −1.53. For the same molecule, the “RNA Screening IL-4 Tgfb” value with TGF-beta expression is on record as “+”. For the same molecule, in the assay on IL-1beta expression, the “RNA Screening Ifng + LPS Il1b” value is “+”.
